PMC11987180 (Biology Direct, 2025)

Key:
[1] = target: T1, human indolethylamine N-methyltransferase (hINMT) (Homo sapiens, UniProt O95050); assay: quinoline-based continuous fluorometric methylation assay; assay type: biochemical
[2] = target: T1, human indolethylamine N-methyltransferase (hINMT); assay: thermal shift assay; assay type: binding

T1 sequence (O95050 whole entry): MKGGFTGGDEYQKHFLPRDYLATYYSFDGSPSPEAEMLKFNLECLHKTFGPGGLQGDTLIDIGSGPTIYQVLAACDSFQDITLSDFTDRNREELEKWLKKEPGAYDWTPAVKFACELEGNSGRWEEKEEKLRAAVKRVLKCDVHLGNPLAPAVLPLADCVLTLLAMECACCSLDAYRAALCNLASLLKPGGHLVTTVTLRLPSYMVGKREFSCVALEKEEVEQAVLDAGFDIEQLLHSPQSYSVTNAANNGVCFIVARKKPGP

IC50 [1] | Kd [2] | Compound
188.5 ± 1.8 µM |  | CNS(=O)(=O)CCc1ccc2[nH]cc(C3CCN(C)CC3)c2c1 [Naratriptan]
 | 55.6 ± 2.6 µM | C[S+](CC[C@H](N)C(=O)[O-])C[C@H]1O[C@@H](n2cnc3c(N)ncnc32)[C@H](O)[C@@H]1O (some centres unmarked) [SAM]
